Measured values from PubChem BioAssay AID2060900 (Molecular Pharmacology Branch, DTP, NCI, 2025).

System: 521955-158-R2-J5-PDC complex spheroids, viability
Test: Anticancer human tumor 521955-158-R2-J5-PDC patient-derived pancreatic carcinoma cell line growth inhibition [RAS]
Conditions: for IC50: curve of first compound; for viability, T/C: stronger effect = lower value; active = viability on the fitted dose curve at most 10% of control; inactive = the rest
Description: RAS pathway inhibitors in Combinations in Complex Spheroids
A high-throughput screen of multi-cell type tumor spheroids was designed to identify active combinations of RAS pathway inhibitors and targeted small molecules. Complex spheroids include a stromal component modeled by human endothelial cells (HUVEC) and fibroblasts modeled by human mesenchymal stem cells (MSCs). The concentration ranges selected for each drug and investigational agent were based upon clinically achievable concentrations if the clinical Cmax of the agent was known.
Compounds. The drugs and investigational agents: abemaciclib (NSC768073), cobimetinib (NSC768068), divarasib (GDC6063, NSC841802), docetaxel (NSC628503), GDC-1971 (RLY-1971, NSC841576), gemcitabine (NSC613327), inavolisib (NSC800729), ipatasertib (NSC767898), KB-0742 (NSC834161), MRTX-1133 (NSC836407), osimertinib (NSC779217), RMC-4630 (NSC839698), RMC-6236 (NSC851965), RMC-6291 (NSC852671), Ro-3306 (NSC812927), sapanisertib (NSC764658), SN-38 (NSC673596), staurosporine (NSC755774), SY5609 (NSC837396), and tovorafenib (DAY101, NSC766906), were obtained from the National Cancer Institute (NCI) Developmental Therapeutics Program Chemical Repository. The FDA-approved anticancer drug set is available from the NCI Developmental Therapeutics Program. […] The stock solutions were prepared in dimethyl sulfoxide (DMSO, Sigma-Aldrich, St. Louis, MO, cat. D2650) at 800-fold the tested concentration and stored at -70 degrees C prior to their use. All drugs and investigational agents were tested over a range starting from a high concentration at or near the clinical Cmax and decreasing in half-log increments. If the clinical Cmax for an agent had not been determined, the highest concentration tested was 10 microM.
Cell Culture. All cells were maintained in an incubator at 37 degrees C and 5% CO2 with 95% humidity. The PDC lines were cultured according to standard operating procedures established by the NCI PDMR. All PDCs were thawed and cultured in Matrigel-coated flasks prepared with a working solution of 1X Ham's F-12 nutrient mix, without supplementation (Invitrogen, Waltham, MA, cat. 11765054), 100 U/mL penicillin-streptomycin (Invitrogen, cat. 15140122), and 2.5% Matrigel (Corning Inc., Corning, NY, cat. 354248) for the first three passages. The 362531-283-R-J2-PDC and 782815-120-R-J1-PDC lines were cultured in 6C/Colon 1B media, which includes advanced DMEM/F-12 (Thermo Fisher Scientific, cat. 12634028), 10 mM HEPES (Thermo Fisher Scientific, cat. 15630080), 1X GlutaMAX supplement (Thermo Fisher Scientific, cat. 35050061), 0.1 mg/mL primocin (InvivoGen, San Diego, CA, cat. ant-pm-2), 10% defined fetal bovine serum, heat inactivated (HyClone Laboratories Inc., Logan, UT, cat. SH30070.03HI), 50% L-WRN conditioned media (ATCC, cat. CRL-3276), 1.25 mM N-Acetyl-L-cysteine (Sigma-Aldrich, cat. A9165), 10 mM nicotinamide (Sigma-Aldrich, cat. N0636), 1X B-27 supplement (Thermo Fisher Scientific, cat. 17504044), 1X N-2 supplement (Thermo Fisher Scientific, cat. 17502048), 50 ng/mL human EGF (Thermo Fisher Scientific, cat. PHG0311), and 10 microM Y-27632 dihydrochloride (Tocris Bioscience, cat. 1254). The K12877-001-R-J1-PDC line was cultured in 6I media, which includes all 6C/Colon 1B media plus 10 ng/mL human FGF-10 (PeproTech, cat. 100-26), 1 ng/mL human FGF-2 (PeproTech, cat. 100-18B), 1 µM prostaglandin E2 (Tocris Bioscience, cat. 2296), […] hydrocortisone (Sigma-Aldrich, cat. H4001), and […] bovine insulin (Sigma-Aldrich, cat. I6634). The K86415-001-R-J1-PDC line was cultured in 6D media, which includes all 6C/Colon 1B media components minus the L-WRN conditioned media. The 485176-168-R4-J1-PDC was cultured in PANC media, which includes all 6C/Colon 1B media plus 100 ng/mL human FGF-10 (PeproTech, cat. 100-26), 500 nM SB-431542 (Selleckchem, cat. S1067), and 10 nM gastrin (Tocris Bioscience, cat. 3006). […]

[1] = second compound 0.0316 µM, first compound 0.0316 µM
[2] = second compound 0.0316 µM, first compound 0.1 µM
[3] = second compound 0.1 µM, first compound 0.0316 µM
[4] = second compound 0.1 µM, first compound 0.1 µM
[5] = second compound 0.316 µM, first compound 0.0316 µM
[6] = second compound 0.316 µM, first compound 0.1 µM
[7] = second compound 1 µM, first compound 0.0316 µM
[8] = second compound 1 µM, first compound 0.1 µM
[9] = second compound 3.16 µM, first compound 0.0316 µM
[10] = second compound 3.16 µM, first compound 0.1 µM
[11] = second compound 10 µM, first compound 0.0316 µM
[12] = second compound 10 µM, first compound 0.1 µM
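Also: compound exposure lasted seven days before the viability read.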
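For viability, T/C in this document: spheroids also contain HUVEC endothelial cells and mesenchymal stem cells as stroma.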

CC(C)n1nc(-c2ccc3oc(N)nc3c2)c2c(N)ncnc21 + C#Cc1c(F)ccc2cc(O)cc(-c3ncc4c(N5CC6CCC(C5)N6)nc(OCC56CCCN5CC(F)C6)nc4c3F)c12
1.08 nM: IC50 (second compound 0.1 µM)
1.97 nM: IC50 (second compound 0.0316 µM)
active: viability, T/C [6] 8.05% | viability, T/C [8] 8.36% | viability, T/C [10] 7.2% | viability, T/C [12] 7.51%
< 0.316 nM: IC50 (second compound 0.316 µM) | IC50 (second compound 1 µM) | IC50 (second compound 3.16 µM) | IC50 (second compound 10 µM)
inactive: viability, T/C (second compound 0.0316 µM, first compound 0.000316 µM) 83.6% | viability, T/C (second compound 0.0316 µM, first compound 0.001 µM) 58.1% | viability, T/C (second compound 0.0316 µM, first compound 0.00316 µM) 46.7% | viability, T/C (second compound 0.0316 µM, first compound 0.01 µM) 27.2% | viability, T/C [1] 20.3% | viability, T/C [2] 16.5% | viability, T/C (second compound 0.1 µM, first compound 0.000316 µM) 51.2% | viability, T/C (second compound 0.1 µM, first compound 0.001 µM) 51.9% | viability, T/C (second compound 0.1 µM, first compound 0.00316 µM) 40.8% | viability, T/C (second compound 0.1 µM, first compound 0.01 µM) 22.4% | viability, T/C [3] 12.6% | viability, T/C [4] 12.4% | viability, T/C (second compound 0.316 µM, first compound 0.000316 µM) 42.1% | viability, T/C (second compound 0.316 µM, first compound 0.001 µM) 56.1% | viability, T/C (second compound 0.316 µM, first compound 0.00316 µM) 40.2% | viability, T/C (second compound 0.316 µM, first compound 0.01 µM) 24.4% | viability, T/C [5] 13.6% | viability, T/C (second compound 1 µM, first compound 0.000316 µM) 49.6% | viability, T/C (second compound 1 µM, first compound 0.001 µM) 45.1% | viability, T/C (second compound 1 µM, first compound 0.00316 µM) 40.4% | viability, T/C (second compound 1 µM, first compound 0.01 µM) 22.1% | viability, T/C [7] 13.7% | viability, T/C (second compound 3.16 µM, first compound 0.000316 µM) 42.6% | viability, T/C (second compound 3.16 µM, first compound 0.001 µM) 44.6% | viability, T/C (second compound 3.16 µM, first compound 0.00316 µM) 33.2% | viability, T/C (second compound 3.16 µM, first compound 0.01 µM) 21.3% | viability, T/C [9] 11% | viability, T/C (second compound 10 µM, first compound 0.000316 µM) 38.9% | viability, T/C (second compound 10 µM, first compound 0.001 µM) 33.8% | viability, T/C (second compound 10 µM, first compound 0.00316 µM) 21.3% | viability, T/C (second compound 10 µM, first compound 0.01 µM) 17% | viability, T/C [11] 10.4%

C[C@@H](NC(=O)c1ncnc(N)c1Cl)c1ncc(C(=O)Nc2cc(C(F)(F)F)c(Cl)cn2)s1 + C#Cc1c(F)ccc2cc(O)cc(-c3ncc4c(N5CC6CCC(C5)N6)nc(OCC56CCCN5CC(F)C6)nc4c3F)c12
531 nM: IC50 (second compound 0.1 µM)
inactive: viability, T/C [1] 57.8% | viability, T/C [2] 58.3% | viability, T/C (second compound 0.0316 µM, first compound 0.316 µM) 59.8% | viability, T/C (second compound 0.0316 µM, first compound 1 µM) 54.3% | viability, T/C (second compound 0.0316 µM, first compound 3.16 µM) 57.4% | viability, T/C (second compound 0.0316 µM, first compound 10 µM) 46% | viability, T/C [3] 65.5% | viability, T/C [4] 58.3% | viability, T/C (second compound 0.1 µM, first compound 0.316 µM) 46.9% | viability, T/C (second compound 0.1 µM, first compound 1 µM) 47.3% | viability, T/C (second compound 0.1 µM, first compound 3.16 µM) 57.2% | viability, T/C (second compound 0.1 µM, first compound 10 µM) 42.3% | viability, T/C [5] 62% | viability, T/C [6] 55.7% | viability, T/C (second compound 0.316 µM, first compound 0.316 µM) 58.4% | viability, T/C (second compound 0.316 µM, first compound 1 µM) 53.2% | viability, T/C (second compound 0.316 µM, first compound 3.16 µM) 52.4% | viability, T/C (second compound 0.316 µM, first compound 10 µM) 37.9% | viability, T/C [7] 61.2% | viability, T/C [8] 48.4% | viability, T/C (second compound 1 µM, first compound 0.316 µM) 47.5% | viability, T/C (second compound 1 µM, first compound 1 µM) 51% | viability, T/C (second compound 1 µM, first compound 3.16 µM) 45.3% | viability, T/C (second compound 1 µM, first compound 10 µM) 33.5% | viability, T/C [9] 51.3% | viability, T/C [10] 49.1% | viability, T/C (second compound 3.16 µM, first compound 0.316 µM) 36.6% | viability, T/C (second compound 3.16 µM, first compound 1 µM) 54.4% | viability, T/C (second compound 3.16 µM, first compound 3.16 µM) 43.5% | viability, T/C (second compound 3.16 µM, first compound 10 µM) 32.7% | viability, T/C [11] 41.1% | viability, T/C [12] 38.2% | viability, T/C (second compound 10 µM, first compound 0.316 µM) 37.3% | viability, T/C (second compound 10 µM, first compound 1 µM) 37.5% | viability, T/C (second compound 10 µM, first compound 3.16 µM) 35.1% | viability, T/C (second compound 10 µM, first compound 10 µM) 22.8%
< 31.6 nM: IC50 (second compound 3.16 µM) | IC50 (second compound 10 µM)
493 nM: IC50 (second compound 1 µM)
3290 nM: IC50 (second compound 0.316 µM)
> 10000 nM: IC50 (second compound 0.0316 µM)
